Several values for one entry are separate records, joined by “and”; a condition that tells them apart may be missing. Equal values may be shown once. Blank lines part the entries; values can stand above or below the compound they belong to.
Experiments:
[1] = target: T1, IDE (Homo sapiens, UniProt P14735); assay: biochemical; details: for remaining activity at 500 µM: individual replicates, read-out: Percent activity at 500 uM, Replicate 1-4; for Percent activity at 500 uM, Mean: N 4
T1 construct: made in house; host or cells: bacteria
T1 sequence (P14735 1-1019): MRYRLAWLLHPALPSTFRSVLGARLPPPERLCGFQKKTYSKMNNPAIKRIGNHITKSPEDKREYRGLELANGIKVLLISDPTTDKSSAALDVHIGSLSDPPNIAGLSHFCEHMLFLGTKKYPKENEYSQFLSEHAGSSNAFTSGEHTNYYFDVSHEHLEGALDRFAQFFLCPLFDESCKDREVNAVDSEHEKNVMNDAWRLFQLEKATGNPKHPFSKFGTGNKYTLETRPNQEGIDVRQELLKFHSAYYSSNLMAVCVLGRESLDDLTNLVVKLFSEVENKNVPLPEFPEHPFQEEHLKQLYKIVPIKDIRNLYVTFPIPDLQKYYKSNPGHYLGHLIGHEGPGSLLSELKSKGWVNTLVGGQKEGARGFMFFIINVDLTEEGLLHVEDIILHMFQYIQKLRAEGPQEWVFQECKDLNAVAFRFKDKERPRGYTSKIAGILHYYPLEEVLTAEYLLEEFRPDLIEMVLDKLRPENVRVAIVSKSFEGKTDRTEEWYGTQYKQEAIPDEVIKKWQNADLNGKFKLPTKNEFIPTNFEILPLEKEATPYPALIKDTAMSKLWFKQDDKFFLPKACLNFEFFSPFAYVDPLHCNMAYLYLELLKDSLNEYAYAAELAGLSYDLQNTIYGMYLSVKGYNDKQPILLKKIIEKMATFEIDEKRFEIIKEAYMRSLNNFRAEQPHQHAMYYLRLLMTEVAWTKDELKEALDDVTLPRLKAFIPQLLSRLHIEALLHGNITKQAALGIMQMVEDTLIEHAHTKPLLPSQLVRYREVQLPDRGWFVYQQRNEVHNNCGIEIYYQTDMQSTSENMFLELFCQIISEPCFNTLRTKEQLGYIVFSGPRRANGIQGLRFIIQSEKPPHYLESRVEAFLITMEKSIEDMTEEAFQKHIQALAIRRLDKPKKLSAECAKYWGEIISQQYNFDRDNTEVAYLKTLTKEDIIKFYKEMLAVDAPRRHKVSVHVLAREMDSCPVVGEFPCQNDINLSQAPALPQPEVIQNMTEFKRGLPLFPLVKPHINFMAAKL
Procedure: The six selected peptide sequences (C7C-1, C7C-2, 12–1, 12–2, 12–3 and 12–4) were synthesized, together with a variety of modifications, yielding a total of 25 peptides (Table 1). […] Other modifications included N-terminal acetylation and C-terminal amidation, included to mimic the charge state of the peptides when incorporated in the phage coat protein (Table 1).
(§1) IDE activity was quantified by monitoring the degradation of Mca-[…](Dnp) (FRET1, 5 μM), fluoresceinated and biotinylated amyloid ß-protein (FAßB; 500 nM) or recombinant human insulin (50 nM) in PBS supplemented with 0.05% BSA. […] In vitro activity assays incorporated recombinant human IDE (1 nM) purified from bacteria. For quantitation of insulin degradation in primary murine skin fibroblasts, cells (1 x 10^5/well) were plated in 96-well plates and maintained in DMEM supplemented with 10% fetal bovine serum (FBS), 2mM glutamine, penicillin and streptomycin. After addition of insulin (10 nM or 100 nM), samples of conditioned medium were removed daily and quickly frozen, then insulin levels were quantified in parallel by ELISA according to manufacturer’s recommendations (Crystal Chem, Downers Grove, IL, USA). Assessment of the activity of P12-3A against a variety of matrix-metalloproteases was conducted using the Matrix Metalloproteinase (MMP) Inhibitor Profiling Kit, Fluorometric RED (Enzo Life Sciences, Inc., Farmingdale, NY, USA) according to manufacturer’s recommendations using the broad-spectrum MMP inhibitor, NNGH, as a positive control.

[2] = target: T1, IDE; assay: Vulnerability of peptides to degradation by IDE: 0 vs 4 h pre-incubation, then FRET1 assay; format: biochemical; details: for IC50: FRET1 assay
Procedure: as §1

[3] = target: T1, IDE; assay: biochemical
Text: The six selected peptide sequences (C7C-1, C7C-2, 12–1, 12–2, 12–3 and 12–4) were synthesized, together with a variety of modifications, yielding a total of 25 peptides (Table 1). For the 12-mer peptides, we synthesized variants of the parent peptides truncated at one or both termini, to test whether the entire sequence was necessary or not, in the hope that shorter, and thus less expensive, sequences might be effective. Other modifications included N-terminal acetylation and C-terminal amidation, included to mimic the charge state of the peptides when incorporated in the phage coat protein (Table 1). To assess the extent to which these peptide sequences inhibit IDE, we quantified their potency in protease activity assays using recombinant human IDE and two different substrates: FRET1, a fluorogenic peptide, and recombinant human insulin.
IDE activity was quantified by monitoring the degradation of Mca-[…](Dnp) (FRET1, 5 μM), fluoresceinated and biotinylated amyloid ß-protein (FAßB; 500 nM) or recombinant human insulin (50 nM) in PBS supplemented with 0.05% BSA. FRET1 degradation was measured by changes in fluorescence (λex = 340 nm, λem = 420 nm); FAßB degradation was monitored by fluorescence polarization (λex = 488 nm, λem = 525 nm), as described; and insulin degradation was quantified by ELISA. In vitro activity assays incorporated recombinant human IDE (1 nM) purified from bacteria. For quantitation of insulin degradation in primary murine skin fibroblasts, cells (1 x 10^5/well) were plated in 96-well plates and maintained in DMEM supplemented with 10% fetal bovine serum (FBS), 2mM glutamine, penicillin and streptomycin. After addition of insulin (10 nM or 100 nM), samples of conditioned medium were removed daily and quickly frozen, then insulin levels were quantified in parallel by ELISA according to manufacturer’s recommendations (Crystal Chem, Downers Grove, IL, USA). Assessment of the activity of P12-3A against a variety of matrix-metalloproteases was conducted using the Matrix Metalloproteinase (MMP) Inhibitor Profiling Kit, Fluorometric RED (Enzo Life Sciences, Inc., Farmingdale, NY, USA) according to manufacturer’s recommendations using the broad-spectrum MMP inhibitor, NNGH, as a positive control.

[4] = initial test, percent of initial velocity relative to DMSO-only controls
[5] = peptide at 10 uM, insulin 100 nM, normalized to DMSO-only and no-enzyme controls

- IC50 ([1]; dose-response, FRET1, read-out: IC50s, Mean): 210 µM
- IC50 <500 uM? ([1]; initial test at 500 uM): YES
- remaining activity at 500 µM [1, 4]: 13.4%
- remaining activity at 500 µM ([1]; judged as IC50 <100 uM?): 61.2%
- Ki ([1]; substrate FRET1 5 μM, Ki from IC50 with the Cheng-Prusoff equation, read-out: Ki FRET1): > 100 µM
- Ki ([2]; 4-hr incubation, Cheng-Prusoff from IC50, FRET1 KM 10 uM, substrate 5 uM): 515 µM
- remaining activity at 0.12207 µM ([2]; 4 h, 4-hr incubation, Cmpd 0.12207 uM, relative to DMSO-only controls, individual runs, read-out: Percent Activity (normalized initial velocity of FRET1 hydrolysis)): 102%
- remaining activity at 0.488281 µM ([2]; 4 h, 4-hr incubation, Cmpd 0.488281 uM, relative to DMSO-only controls, individual runs, read-out: Percent Activity (normalized initial velocity of FRET1 hydrolysis)): 91.2%
- remaining activity at 1.95312 µM ([2]; 4 h, 4-hr incubation, Cmpd 1.95312 uM, relative to DMSO-only controls, individual runs, read-out: Percent Activity (normalized initial velocity of FRET1 hydrolysis)): 99.3%
- remaining activity at 7.8125 µM ([2]; 4 h, 4-hr incubation, Cmpd 7.8125 uM, relative to DMSO-only controls, individual runs, read-out: Percent Activity (normalized initial velocity of FRET1 hydrolysis)): 97.1%
- remaining activity at 31.25 µM ([2]; 4 h, 4-hr incubation, Cmpd 31.25 uM, relative to DMSO-only controls, individual runs, read-out: Percent Activity (normalized initial velocity of FRET1 hydrolysis)): 90.2%
- remaining activity at 125 µM ([2]; 4 h, 4-hr incubation, Cmpd 125 uM, relative to DMSO-only controls, individual runs, read-out: Percent Activity (normalized initial velocity of FRET1 hydrolysis)): 47.6%
- remaining activity at 500 µM ([2]; 4 h, 4-hr incubation, Cmpd 500 uM, relative to DMSO-only controls, individual runs, read-out: Percent Activity (normalized initial velocity of FRET1 hydrolysis)): 20.6%
- IC50 ([2]; 0-hr incubation (immediately after combining enzyme and peptide), individual runs, read-out: IC50s): 138 µM and 282 µM
- IC50 ([2]; 4-hr incubation, individual replicates, read-out: IC50s): 791 µM and 755 µM
- IC50 ([2]; 4-hr incubation, mean of 2 replicates, read-out: IC50s, Mean): 773 µM
- IC50 ([3]; from initial test at 10 uM using insulin (100 nM), read-out: IC50 (summary of results, listed in Table 1)): > 10 µM
- Ki ([3]; substrate recombinant human insulin 50 nM, Ki from IC50 with the Cheng-Prusoff equation): > 10 µM
Compound: CC(=O)N[C@@H](Cc1c[nH]c2ccccc12)C(=O)N[C@@H](CC(=O)O)C(=O)N[C@@H](Cc1ccccc1)C(=O)N[C@@H](CCCNC(=N)N)C(=O)N[C@@H](CCC(N)=O)C(=O)N[C@@H](Cc1c[nH]c2ccccc12)C(=O)N[C@@H](Cc1c[nH]c2ccccc12)C(=O)N[C@@H](CCC(N)=O)C(N)=O [P12-1D]

- Percent activity at 500 uM, Mean [1, 4]: 6.4%
- Percent activity at 500 uM, Mean ([1]; judged as IC50 <100 uM?): 29.8%
- Percent Activity (normalized initial velocity of FRET1 hydrolysis) ([2]; 0-hr incubation, Cmpd 0.12207 uM, relative to DMSO-only controls, individual runs): 87.1275% and 89.107% and 97.5567%
- Percent Activity (normalized initial velocity of FRET1 hydrolysis) ([2]; 0-hr incubation, Cmpd 0.488281 uM, relative to DMSO-only controls, individual runs): 88.274% and 92.2277% and 96.9846%
- Percent Activity (normalized initial velocity of FRET1 hydrolysis) ([2]; 0-hr incubation, Cmpd 1.95312 uM, relative to DMSO-only controls, individual runs): 91.5093% and 89.6687% and 99.5643%
- Percent Activity (normalized initial velocity of FRET1 hydrolysis) ([2]; 0-hr incubation, Cmpd 7.8125 uM, relative to DMSO-only controls, individual runs): 83.3253% and 88.0997% and 90.5388%
- Percent Activity (normalized initial velocity of FRET1 hydrolysis) ([2]; 0-hr incubation, Cmpd 31.25 uM, relative to DMSO-only controls, individual runs): 61.5604% and 65.1463% and 71.7432%
- Percent Activity (normalized initial velocity of FRET1 hydrolysis) ([2]; 0-hr incubation, Cmpd 125 uM, relative to DMSO-only controls, individual runs): 22.5624% and 28.2506% and 30.6967%
- Percent Activity (normalized initial velocity of FRET1 hydrolysis) ([2]; 0-hr incubation, Cmpd 500 uM, relative to DMSO-only controls, individual runs): 2.879% and 4.537% and 8.696%
- Percent Activity (normalized initial velocity of FRET1 hydrolysis) ([2]; 4-hr incubation, Cmpd 0.12207 uM, relative to DMSO-only controls, individual runs): 96.239% and 102.101%
- Percent Activity (normalized initial velocity of FRET1 hydrolysis) ([2]; 4-hr incubation, Cmpd 0.488281 uM, relative to DMSO-only controls, individual runs): 100.910% and 100.775%
- Percent Activity (normalized initial velocity of FRET1 hydrolysis) ([2]; 4-hr incubation, Cmpd 1.95312 uM, relative to DMSO-only controls, individual runs): 100.923% and 102.486%
- Percent Activity (normalized initial velocity of FRET1 hydrolysis) ([2]; 4-hr incubation, Cmpd 7.8125 uM, relative to DMSO-only controls, individual runs): 97.345% and 105.750%
- Percent Activity (normalized initial velocity of FRET1 hydrolysis) ([2]; 4-hr incubation, Cmpd 31.25 uM, relative to DMSO-only controls, individual runs): 94.256% and 100.607%
- Percent Activity (normalized initial velocity of FRET1 hydrolysis) ([2]; 4-hr incubation, Cmpd 125 uM, relative to DMSO-only controls, individual runs): 90.993% and 91.075%
- Percent Activity (normalized initial velocity of FRET1 hydrolysis) ([2]; 4-hr incubation, Cmpd 500 uM, relative to DMSO-only controls, individual runs): 24.626% and 23.530%
- percent decrease in insulin detected by ELISA, Replicate 1 [3, 5]: 111.9%
- percent decrease in insulin detected by ELISA, Replicate 2 [3, 5]: 145.7%
- percent decrease in insulin detected by ELISA, Replicate 3 [3, 5]: 105.6%
- percent decrease in insulin detected by ELISA, Replicate 4 [3, 5]: 114.6%
- percent decrease in insulin detected by ELISA, Mean ([3]; peptide at 10 uM, insulin 100 nM, normalized to DMSO-only and no-enzyme controls, N=4): 119.5%
Compound: WCYPHCVT [P12-3C]
